Data: patent publication US20210228734A1, “CONJUGATES COMPRISING A TEMPERATURE-RESPONSIVE POLYMER AND A LIGAND CAPABLE OF BINDING ERGOSTEROL” (L V PRASAD EYE INSTITUTE, priority 2018, published 2021)

Columns and labels:
C. albicans ATCC90028 = assay: Minimal inhibitory concentration (MIC), C. albicans ATCC90028; format: cell-based
Experimental: (§1) C. albicans cells, laboratory strain SC5314 or ATCC90028, were cultured on solid BHI (Oxoid) medium at 37° C. for 24 hours and stored at 4° C. for up to one month. Prior to experiments, a colony of C. albicans was sub-cultured into liquid BHI medium overnight at 37° C.
(§2) C. albicans cells, laboratory strain SC5314 or ATCC90028, were cultured on solid BHI (Oxoid) medium at 37° C. for 24 hours and stored at 4° C. for up to one month. Prior to experiments, a colony of C. albicans was sub-cultured into liquid BHI medium overnight at 37° C. Overnight cultures of C. albicans were adjusted to an optical density at 600 nm of 0.1 and incubated with Amphotericin polymers, which were serially diluted 1:2 from 2500-2.44 μg/ml, for 16 hours in a 96 well plate. The concentration of polymer at which there was no visible growth was determined to be the MIC. C. albicans (Robin) ATCC200955, C. tropicalis ATCC200956, A. flavus ATCC16883 and F. keratoplasticum ATCC36031 were similarly cultured on solid Sabrauds (Oxoid) medium at 37° C. for 24 hours and stored at 4° C. for up to one month. Prior to experiments, colonies were sub-cultured into liquid Sabrauds medium overnight at 37° C. All liquid cultures were static apart from A. flavus which was incubated shaking at 100 rpm.

[1] = physiological pH; stated as well known; cited from earlier work
[2] = tested on: Aspergillus flavus ATCC16883; assay: Minimal inhibitory concentration (MIC), A. flavus ATCC16883; format: cell-based; conditions: A. flavus ATCC 16883
Experimental: as §2

[3] = literature range; cited from earlier work
C. albicans SC5314 = assay: Minimal inhibitory concentration (MIC), C. albicans SC5314; format: cell-based
Experimental: as §1, §2

[4] = tested on: Fusarium keratoplasticum ATCC36031; assay: Minimal inhibitory concentration (MIC), F. keratoplasticum ATCC36031; format: cell-based; conditions: F. keratoplasticum ATCC 36031
Experimental: as §2

[5] = tested on: C. albicans (Robin) ATCC200955; assay: Minimal inhibitory concentration (MIC), C. albicans ATCC200955; format: cell-based; conditions: C. albicans ATCC200955 (Amp-B non-sensitive); Table 3b
Experimental: as §2

C. tropicalis ATCC200956 = assay: Minimal inhibitory concentration (MIC), C. tropicalis ATCC200956; format: cell-based; conditions: C. tropicalis ATCC200956 (Amp-B non-sensitive); Table 3b
Experimental: as §2, with “Overnight cultures of C. albicans were adjusted to an optical density at 600 nm of 0.1 and incubated with Amphotericin polymers, which were serially diluted 1:2 from 2500-2.44 μg/ml, for 16 hours in a 96 well plate.” left out

human donor corneas = conditions: 2.5 ma ml^−1, Alamar Blue, p<0.01
Experimental: Epithelial cell/cornea viability was determined using Alamar Blue reagent (5 μg ml^−1) dissolved in PBS. Cells/corneas were incubated with Alamar Blue for 30 minutes and the fluorescence of the solution determined at 570 nm excitation and 585 nm emission (Infinite 200, Tecan). Data for each polymer is presented as percentage viability relative to an untreated control. Each assay was performed in triplicate and data represents the mean±SD from three independent experiments.
The examination of the cytotoxicity was further examined on ex vivo human corneas.

[6] = tested on: rabbit limbal epithelial cells; assay: Rabbit limbal epithelial cell viability (Alamar Blue); conditions: p<0.01
Experimental: Tissue was immersed in 2.5 mg ml^−1 (w/v) dispase II solution in DMEM for 1 hour at 37° C. The limbal rims were subsequently scraped gently using forceps to remove the epithelial cells. The dispase-cell suspension was centrifuged at 200 g for 5 minutes and re-suspended in culture medium containing DMEM: Ham's F12 (1:1) supplemented with 10% foetal calf serum, 100 U ml^−1 penicillin and 100 U ml^−1 streptomycin, 2.5 μg ml^−1 Amp−B, 5 μg ml^−1 insulin and 10 ng ml^−1 epidermal growth factor. Cells were cultured with irradiated 3T3-mouse fibroblasts at a cell density of 2.4×10^4 cells cm^−2 in culture medium. Cells were not used beyond passage 3. For experiments, cells were seeded into 24 well-plates at 5×10^4 cells per well and cultured for 24 hours.
Prior to determining the viability of rabbit limbal epithelial cells, cells were washed 3× with phosphate-buffered saline (PBS, 0.01M, pH 7.4) to remove residual antimicrobials. […] Epithelial cell/cornea viability was determined using Alamar Blue reagent (5 μg ml^−1) dissolved in PBS. Cells/corneas were incubated with Alamar Blue for 30 minutes and the fluorescence of the solution determined at 570 nm excitation and 585 nm emission (Infinite 200, Tecan). Data for each polymer is presented as percentage viability relative to an untreated control. […]

[7] = from weight based MIC and molar density

## C[C@@H]1[C@H](O)[C@@H](C)/C=C/C=C/C=C/C=C/C=C/C=C/C=C/[C@H](O[C@@H]2O[C@H](C)[C@@H](O)[C@H](N)[C@@H]2O)C[C@@H]2O[C@](O)(C[C@@H](O)C[C@@H](O)[C@H](O)CC[C@@H](O)C[C@@H](O)CC(=O)O[C@H]1C)C[C@H](O)[C@H]2C(=O)O [Amp-B, amphotericin B]
C. albicans ATCC90028; Table 3b
  Weight based MIC: 0.5 µg·mL
C. albicans ATCC90028; [7]
  Molar MIC: 4800 µM
[1]
  Solubility in water and saline solution: insoluble
[2]; Table 3b
  Weight based MIC: 1.5 µg·mL
[2]; [7]
  Molar MIC: 1800 µM
[3]
  MIC for Amp-B: 0.625 to 4 µg/mL
C. albicans SC5314; Table 3b
  Weight based MIC: 0.4 µg·mL
C. albicans SC5314; from weight based MIC and molar density of Amp-B groups
  Molar MIC: 500 µM
[4]; Table 3b
  Weight based MIC: 0.2 µg·mL
[4]; [7]
  Molar MIC: 250 µM
[5]
  Weight based MIC: >2500 µg·mL
C. tropicalis ATCC200956
  Weight based MIC: >2500 µg·mL
Human donor corneas
  Loss of corneal viability: approximately 95%
[6]; 100 μg ml^−1, 24 hours
  Metabolic activity of cells compared with the cell only control: 42.8±13.9%
[6]; 1 mg ml^−1, 24 hours
  Decrease in epithelial cell viability relative to a cell only control: approximately 91.7%
